# Target: T1, Histone-lysine N-methyltransferase EHMT2 (Homo sapiens, UniProt Q96KQ7)
# T1 sequence (Q96KQ7 whole entry): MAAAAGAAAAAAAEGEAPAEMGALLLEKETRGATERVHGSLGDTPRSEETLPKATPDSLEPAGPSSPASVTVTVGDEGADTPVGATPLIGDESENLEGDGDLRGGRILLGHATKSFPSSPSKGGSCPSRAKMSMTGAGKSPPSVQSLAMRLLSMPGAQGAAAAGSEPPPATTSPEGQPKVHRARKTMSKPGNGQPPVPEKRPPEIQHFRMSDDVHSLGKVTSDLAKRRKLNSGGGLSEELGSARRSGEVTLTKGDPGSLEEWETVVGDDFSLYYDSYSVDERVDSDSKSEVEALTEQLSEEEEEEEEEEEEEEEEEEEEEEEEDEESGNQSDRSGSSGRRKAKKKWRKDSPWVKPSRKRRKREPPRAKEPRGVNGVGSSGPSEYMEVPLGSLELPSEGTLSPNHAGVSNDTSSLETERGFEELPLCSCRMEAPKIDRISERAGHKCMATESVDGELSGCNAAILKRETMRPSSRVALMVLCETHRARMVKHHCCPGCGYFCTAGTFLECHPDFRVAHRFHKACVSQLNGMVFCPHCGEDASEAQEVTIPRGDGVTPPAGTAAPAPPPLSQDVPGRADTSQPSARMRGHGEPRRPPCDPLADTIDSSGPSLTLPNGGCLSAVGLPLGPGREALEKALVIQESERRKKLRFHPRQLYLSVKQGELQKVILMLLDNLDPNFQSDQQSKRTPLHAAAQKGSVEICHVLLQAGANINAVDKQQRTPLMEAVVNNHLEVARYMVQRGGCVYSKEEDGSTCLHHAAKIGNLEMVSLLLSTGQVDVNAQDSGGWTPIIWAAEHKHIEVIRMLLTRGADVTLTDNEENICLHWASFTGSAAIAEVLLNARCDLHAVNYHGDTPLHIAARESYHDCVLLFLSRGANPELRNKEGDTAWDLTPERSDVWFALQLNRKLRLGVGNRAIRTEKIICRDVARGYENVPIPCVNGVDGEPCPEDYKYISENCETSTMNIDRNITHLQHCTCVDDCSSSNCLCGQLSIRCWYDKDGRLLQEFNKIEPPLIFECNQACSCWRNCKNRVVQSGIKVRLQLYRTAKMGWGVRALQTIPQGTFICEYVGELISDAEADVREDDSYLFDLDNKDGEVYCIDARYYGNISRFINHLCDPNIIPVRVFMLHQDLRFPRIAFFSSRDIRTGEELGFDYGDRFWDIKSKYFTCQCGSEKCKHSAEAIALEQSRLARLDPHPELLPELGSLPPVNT
# Assay: Inhibition of methyl transferase activity of G9a assessed as inhibition of H3K9 methylation by chemiluminescence based oxygen tunneling assay
row,SMILES,IC50 [µM]
1,"COc1cc2nc(N3CCCN(C)CC3)nc(NC3CCNCC3)c2cc1OC [6,7-Dimethoxy-2-(4-methyl-1,4-diazepan-1-yl)-N-(piperidin-4-yl)quinazolin-4-amine]",> 10
2,"COc1cc2nc(N3CCCN(C)CC3)nc(NC3CCOCC3)c2cc1OC [6,7-dimethoxy-2-(4-methyl-1,4-diazepan-1-yl)-N-(tetrahydro-2H-pyran-4-yl)quinazolin-4-amine]",> 10

# Reference: BindingDB's records for doi:10.1021/jm100478y (University of North Carolina at Chapel Hill, 2010)
